Measurements reported in PMC12501607, “Novel prolyl endopeptidase inhibitor from Myricaria germanica alleviates steatohepatitis” (RSC Advances, 2025).

Key:
[1] = molecular target: T1, Prolyl endopeptidase (PREP) (Homo sapiens, UniProt P48147); assay: Chromogenic enzyme assay (Z-Gly-Pro-pNA, […] nm) with recombinant human PREP; format: biochemical
T1 sequence (P48147 1-710): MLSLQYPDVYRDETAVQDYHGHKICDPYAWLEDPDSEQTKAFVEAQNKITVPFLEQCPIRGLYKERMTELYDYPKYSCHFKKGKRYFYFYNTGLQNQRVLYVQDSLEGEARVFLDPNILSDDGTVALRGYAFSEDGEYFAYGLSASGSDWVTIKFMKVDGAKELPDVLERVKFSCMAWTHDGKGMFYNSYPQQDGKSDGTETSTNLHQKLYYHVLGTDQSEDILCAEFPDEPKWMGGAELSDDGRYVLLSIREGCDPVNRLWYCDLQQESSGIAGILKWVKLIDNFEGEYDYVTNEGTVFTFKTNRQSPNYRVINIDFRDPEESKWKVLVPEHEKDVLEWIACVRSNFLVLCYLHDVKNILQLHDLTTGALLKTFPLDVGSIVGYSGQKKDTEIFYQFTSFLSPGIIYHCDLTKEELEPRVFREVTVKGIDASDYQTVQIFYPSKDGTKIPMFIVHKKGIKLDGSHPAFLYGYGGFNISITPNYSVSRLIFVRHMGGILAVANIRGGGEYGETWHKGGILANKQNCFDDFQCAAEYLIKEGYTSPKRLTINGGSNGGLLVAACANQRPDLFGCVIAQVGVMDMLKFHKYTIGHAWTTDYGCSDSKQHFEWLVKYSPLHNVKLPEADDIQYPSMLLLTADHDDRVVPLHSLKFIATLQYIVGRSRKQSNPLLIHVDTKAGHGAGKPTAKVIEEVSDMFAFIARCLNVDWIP

[2] = molecular target: T1, Prolyl endopeptidase (PREP); assay: Chromogenic enzyme assay (Z-Gly-Pro-pNA, […] nm) with recombinant human PREP; Lineweaver-Burk kinetics; format: biochemical

Row | Structure (SMILES) | IC50 [1] [µM] | IC50 [2] [µM]
1 | COc1cc(C(=O)O)cc(OC)c1O [Fr-2, syringic acid] | 155 ± 1.8 | –
2 | CCCCCCCCCCCCCCCCCCCCCCCCCC1CCCCC1O (racemic) [PREPi, (±)-2-pentacosylcyclohexanol] | – | 20 ± 1.6
